Measurements reported in BigSolDB 2.1.

CC(C)(Oc1ccc(C2CC2(Cl)Cl)cc1)C(=O)O (stereo not given)
solubility (mole fraction)
Conditions	278.15 K	283.15 K	288.15 K	293.15 K	298.15 K	303.15 K	308.15 K	313.15 K	318.15 K	323.15 K
in DMF	0.218	0.236	0.257	0.277	0.296	0.319	0.342	0.365	0.385	0.407
in ethanol	0.156	0.171	0.187	0.203	0.219	0.239	0.259	0.277	0.294	0.312
in ethylene glycol	0.0348	0.0395	0.044	0.0486	0.053	0.0592	0.0652	0.0711	0.077	0.0823
in n-propanol	0.0758	0.0854	0.0948	0.104	0.113	0.125	0.137	0.148	0.159	0.169
in water	5.95e-07	7.63e-07	9.11e-07	1.1e-06	1.31e-06	1.54e-06	1.77e-06	2.05e-06	2.33e-06	2.65e-06
